From the supplement of paper PMC10307832

Key:
Assay in all cases: relative viability (nuclei count vs DMSO), 5 days (fraction); higher = more cells survive
[1] = test system: 201T
Method in brief: (§1)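 Five library-drug doses in √10 steps were combined with a fixed anchor-drug dose, or a single drug was given alone, by pin tool to lung cancer cell lines in 1536-well plates the day after seeding. Nuclei were stained and counted after 5 days. Relative viability is the nuclei count in treated wells over that in vehicle wells, taken as the median of duplicate plates.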

[2] = test system: NCI-H647
Method in brief: as §1

[3] = test system: HCC-15
Method in brief: as §1

[4] = test system: COR-L 105
Method in brief: as §1

[5] = test system: NCI-H1651
Method in brief: as §1

[6] = test system: EKVX
Method in brief: as §1

[7] = test system: NCI-H661
Method in brief: as §1

[8] = test system: H3255
Method in brief: as §1

[9] = test system: ABC-1
Method in brief: as §1

[10] = test system: COR-L23
Method in brief: as §1

[11] = test system: NCI-H1650
Method in brief: as §1

[12] = test system: NCI-H1437
Method in brief: as §1

[13] = test system: LCLC-103H
Method in brief: as §1

[14] = test system: HCC-44
Method in brief: as §1

[15] = test system: NCI-H2087
Method in brief: as §1

[16] = test system: HCC-827
Method in brief: as §1

[17] = test system: NCI-H520
Method in brief: as §1

[18] = test system: NCI-H727
Method in brief: as §1

[19] = test system: EPLC-272H
Method in brief: as §1

[20] = test system: NCI-H1975
Method in brief: as §1

[21] = test system: NCI-H358
Method in brief: as §1

[22] = test system: UMC-11
Method in brief: as §1

Compound: O=C(O)CCCCC(CCSCc1ccccc1)SCc1ccccc1 (stereo not drawn) [CPI-613] + Cc1cc(Nc2cc(N3CCN(C)CC3)nc(Sc3ccc(NC(=O)C4CC4)cc3)n2)n[nH]1 [Tozasertib] (partner 0.1 µM)
- relative viability ([1]; first compound 5 µM): 0.913
- relative viability ([1]; first compound 15.81 µM): 0.846
- relative viability ([1]; first compound 50 µM): 0.8
- relative viability ([1]; first compound 158.11 µM): 0.443
- relative viability ([1]; first compound 500 µM): 0.209
- relative viability ([2]; first compound 5 µM): 0.384
- relative viability ([2]; first compound 15.81 µM): 0.244
- relative viability ([2]; first compound 50 µM): 0.286
- relative viability ([2]; first compound 158.11 µM): 0.0859
- relative viability ([2]; first compound 500 µM): 0.021
- relative viability ([3]; first compound 5 µM): 0.514
- relative viability ([3]; first compound 15.81 µM): 0.367
- relative viability ([3]; first compound 50 µM): 0.369
- relative viability ([3]; first compound 158.11 µM): 0.29
- relative viability ([3]; first compound 500 µM): 0.112
- relative viability ([4]; first compound 5 µM): 0.288
- relative viability ([4]; first compound 15.81 µM): 0.348
- relative viability ([4]; first compound 50 µM): 0.321
- relative viability ([4]; first compound 158.11 µM): 0.321
- relative viability ([4]; first compound 500 µM): 0.137
- relative viability ([5]; first compound 5 µM): 0.705
- relative viability ([5]; first compound 15.81 µM): 0.588
- relative viability ([5]; first compound 50 µM): 0.77
- relative viability ([5]; first compound 158.11 µM): 0.275
- relative viability ([5]; first compound 500 µM): 0.109
- relative viability ([6]; first compound 5 µM): 0.384
- relative viability ([6]; first compound 15.81 µM): 0.401
- relative viability ([6]; first compound 50 µM): 0.366
- relative viability ([6]; first compound 158.11 µM): 0.368
- relative viability ([6]; first compound 500 µM): 0.41
- relative viability ([7]; first compound 5 µM): 0.358
- relative viability ([7]; first compound 15.81 µM): 0.324
- relative viability ([7]; first compound 50 µM): 0.348
- relative viability ([7]; first compound 158.11 µM): 0.331
- relative viability ([7]; first compound 500 µM): 0.203
- relative viability ([8]; first compound 5 µM): 0.529
- relative viability ([8]; first compound 15.81 µM): 0.615
- relative viability ([8]; first compound 50 µM): 0.579
- relative viability ([8]; first compound 500 µM): 0.753
- relative viability ([9]; first compound 5 µM): 0.215
- relative viability ([9]; first compound 15.81 µM): 0.189
- relative viability ([9]; first compound 50 µM): 0.189
- relative viability ([9]; first compound 158.11 µM): 0.179
- relative viability ([9]; first compound 500 µM): 0.207
- relative viability ([10]; first compound 5 µM): 0.208
- relative viability ([10]; first compound 15.81 µM): 0.145
- relative viability ([10]; first compound 50 µM): 0.192
- relative viability ([10]; first compound 158.11 µM): 0.11
- relative viability ([10]; first compound 500 µM): 0.0434
- relative viability ([11]; first compound 5 µM): 0.441
- relative viability ([11]; first compound 15.81 µM): 0.321
- relative viability ([11]; first compound 50 µM): 0.417
- relative viability ([11]; first compound 158.11 µM): 0.0645
- relative viability ([11]; first compound 500 µM): 0.0151
- relative viability ([12]; first compound 5 µM): 0.374
- relative viability ([12]; first compound 15.81 µM): 0.39
- relative viability ([12]; first compound 50 µM): 0.407
- relative viability ([12]; first compound 158.11 µM): 0.156
- relative viability ([12]; first compound 500 µM): 0.131
- relative viability ([13]; first compound 5 µM): 0.441
- relative viability ([13]; first compound 15.81 µM): 0.389
- relative viability ([13]; first compound 50 µM): 0.47
- relative viability ([13]; first compound 158.11 µM): 0.387
- relative viability ([13]; first compound 500 µM): 0.424
- relative viability ([14]; first compound 5 µM): 0.936
- relative viability ([14]; first compound 15.81 µM): 0.845
- relative viability ([14]; first compound 50 µM): 0.969
- relative viability ([14]; first compound 158.11 µM): 0.322
- relative viability ([14]; first compound 500 µM): 0.0777
- relative viability ([15]; first compound 5 µM): 0.316
- relative viability ([15]; first compound 15.81 µM): 0.256
- relative viability ([15]; first compound 50 µM): 0.21
- relative viability ([15]; first compound 158.11 µM): 0.0949
- relative viability ([15]; first compound 500 µM): 0.0489
- relative viability ([16]; first compound 5 µM): 0.451
- relative viability ([16]; first compound 15.81 µM): 0.388
- relative viability ([16]; first compound 50 µM): 0.409
- relative viability ([16]; first compound 158.11 µM): 0.375
- relative viability ([16]; first compound 500 µM): 0.292
- relative viability ([17]; first compound 5 µM): 0.42
- relative viability ([17]; first compound 15.81 µM): 0.378
- relative viability ([17]; first compound 50 µM): 0.352
- relative viability ([17]; first compound 158.11 µM): 0.48
- relative viability ([17]; first compound 500 µM): 0.375
- relative viability ([18]; first compound 5 µM): 0.557
- relative viability ([18]; first compound 15.81 µM): 0.697
- relative viability ([18]; first compound 50 µM): 0.685
- relative viability ([18]; first compound 158.11 µM): 0.369
- relative viability ([18]; first compound 500 µM): 0.455
- relative viability ([19]; first compound 5 µM): 0.285
- relative viability ([19]; first compound 15.81 µM): 0.279
- relative viability ([19]; first compound 50 µM): 0.242
- relative viability ([19]; first compound 158.11 µM): 0.0813
- relative viability ([19]; first compound 500 µM): 0.0387
- relative viability ([20]; first compound 5 µM): 0.7
- relative viability ([20]; first compound 15.81 µM): 0.639
- relative viability ([20]; first compound 50 µM): 0.676
- relative viability ([20]; first compound 158.11 µM): 0.324
- relative viability ([20]; first compound 500 µM): 0.233
- relative viability ([21]; first compound 15.81 µM): 0.113
- relative viability ([21]; first compound 50 µM): 0.0981
- relative viability ([21]; first compound 158.11 µM): 0.0576
- relative viability ([21]; first compound 500 µM): 0.0347
- relative viability ([22]; first compound 5 µM): 0.189
- relative viability ([22]; first compound 15.81 µM): 0.195
- relative viability ([22]; first compound 50 µM): 0.183
- relative viability ([22]; first compound 158.11 µM): 0.127
- relative viability ([22]; first compound 500 µM): 0.116
